Test results taken from ChEMBL document CHEMBL1255267, “Reduced Susceptibility of Proteus mirabilis to triclosan” (2008).
≈ marks a conversion by molar mass, not a printed value.

system: Proteus mirabilis; test: Antibacterial activity against Proteus mirabilis M 29 mutant after 18 hrs by Etest method; format: functional; conditions: M 29, 18 h

SMILES	MIC [µg/mL]
O=C1CN(/N=C/c2ccc([N+](=O)[O-])o2)C(=O)N1 [NITROFURANTOIN]	16 (≈ 67.2 µM)
CCn1cc(C(=O)O)c(=O)c2cc(F)c(N3CCNCC3)cc21 [NORFLOXACIN]	0.03 (≈ 0.0939 µM)

system: Proteus mirabilis; test: Antibacterial activity against Proteus mirabilis M 12 mutant after 18 hrs by Etest method; format: functional; conditions: M 12, 18 h

SMILES	MIC [µg/mL]
O=C1CN(/N=C/c2ccc([N+](=O)[O-])o2)C(=O)N1 [NITROFURANTOIN]	12 (≈ 50.4 µM)
CCn1cc(C(=O)O)c(=O)c2cc(F)c(N3CCNCC3)cc21 [NORFLOXACIN]	0.02 (≈ 0.0626 µM)

system: Proteus mirabilis; test: Antibacterial activity against Proteus mirabilis M 42 mutant after 18 hrs by Etest method; format: functional; conditions: M 42, 18 h

SMILES	MIC [µg/mL]
O=C1CN(/N=C/c2ccc([N+](=O)[O-])o2)C(=O)N1 [NITROFURANTOIN]	48 (≈ 202 µM)
CCn1cc(C(=O)O)c(=O)c2cc(F)c(N3CCNCC3)cc21 [NORFLOXACIN]	0.03 (≈ 0.0939 µM)

system: Proteus mirabilis; test: Antibacterial activity against Proteus mirabilis B2 after 18 hrs by Etest method; format: functional; conditions: B2, 18 h

SMILES	MIC [µg/mL]
O=C1CN(/N=C/c2ccc([N+](=O)[O-])o2)C(=O)N1 [NITROFURANTOIN]	64 (≈ 269 µM)
CCn1cc(C(=O)O)c(=O)c2cc(F)c(N3CCNCC3)cc21 [NORFLOXACIN]	0.05 (≈ 0.157 µM)

system: Proteus mirabilis; test: Antibacterial activity against Proteus mirabilis M 19 mutant after 18 hrs by Etest method; format: functional; conditions: M 19, 18 h

SMILES	MIC [µg/mL]
O=C1CN(/N=C/c2ccc([N+](=O)[O-])o2)C(=O)N1 [NITROFURANTOIN]	32 (≈ 134 µM)
CCn1cc(C(=O)O)c(=O)c2cc(F)c(N3CCNCC3)cc21 [NORFLOXACIN]	0.19 (≈ 0.595 µM)

system: Proteus mirabilis; test: Antibacterial activity against Proteus mirabilis NP43 after 18 hrs by Etest method; format: functional; conditions: NP43, 18 h

SMILES	MIC [µg/mL]
O=C1CN(/N=C/c2ccc([N+](=O)[O-])o2)C(=O)N1 [NITROFURANTOIN]	48 (≈ 202 µM)
CCn1cc(C(=O)O)c(=O)c2cc(F)c(N3CCNCC3)cc21 [NORFLOXACIN]	0.05 (≈ 0.157 µM)

system: Proteus mirabilis; test: Antibacterial activity against Proteus mirabilis M 26 mutant after 18 hrs by Etest method; format: functional; conditions: M 26, 18 h

SMILES	MIC [µg/mL]
O=C1CN(/N=C/c2ccc([N+](=O)[O-])o2)C(=O)N1 [NITROFURANTOIN]	24 (≈ 101 µM)
CCn1cc(C(=O)O)c(=O)c2cc(F)c(N3CCNCC3)cc21 [NORFLOXACIN]	0.03 (≈ 0.0939 µM)

system: Proteus mirabilis; test: Antibacterial activity against Proteus mirabilis M 17 mutant after 18 hrs by Etest method; format: functional; conditions: M 17, 18 h

SMILES	MIC [µg/mL]
O=C1CN(/N=C/c2ccc([N+](=O)[O-])o2)C(=O)N1 [NITROFURANTOIN]	12 (≈ 50.4 µM)
CCn1cc(C(=O)O)c(=O)c2cc(F)c(N3CCNCC3)cc21 [NORFLOXACIN]	0.02 (≈ 0.0626 µM)

system: Proteus mirabilis; test: Antibacterial activity against Proteus mirabilis M 21 mutant after 18 hrs by Etest method; format: functional; conditions: M 21, 18 h

SMILES	MIC [µg/mL]
O=C1CN(/N=C/c2ccc([N+](=O)[O-])o2)C(=O)N1 [NITROFURANTOIN]	48 (≈ 202 µM)
CCn1cc(C(=O)O)c(=O)c2cc(F)c(N3CCNCC3)cc21 [NORFLOXACIN]	0.19 (≈ 0.595 µM)

system: Proteus mirabilis; test: Antibacterial activity against Proteus mirabilis M 35 mutant after 18 hrs by Etest method; format: functional; conditions: M 35, 18 h

SMILES	MIC [µg/mL]
O=C1CN(/N=C/c2ccc([N+](=O)[O-])o2)C(=O)N1 [NITROFURANTOIN]	32 (≈ 134 µM)
CCn1cc(C(=O)O)c(=O)c2cc(F)c(N3CCNCC3)cc21 [NORFLOXACIN]	0.03 (≈ 0.0939 µM)

system: Proteus mirabilis; test: Antibacterial activity against Proteus mirabilis M 55 mutant after 18 hrs by Etest method; format: functional; conditions: M 55, 18 h

SMILES	MIC [µg/mL]
O=C1CN(/N=C/c2ccc([N+](=O)[O-])o2)C(=O)N1 [NITROFURANTOIN]	48 (≈ 202 µM)
CCn1cc(C(=O)O)c(=O)c2cc(F)c(N3CCNCC3)cc21 [NORFLOXACIN]	0.05 (≈ 0.157 µM)

system: Proteus mirabilis; test: Antibacterial activity against Proteus mirabilis NP37 after 18 hrs by Etest method; format: functional; conditions: NP37, 18 h

SMILES	MIC [µg/mL]
O=C1CN(/N=C/c2ccc([N+](=O)[O-])o2)C(=O)N1 [NITROFURANTOIN]	24 (≈ 101 µM)
CCn1cc(C(=O)O)c(=O)c2cc(F)c(N3CCNCC3)cc21 [NORFLOXACIN]	0.05 (≈ 0.157 µM)

system: Proteus mirabilis; test: Antibacterial activity against Proteus mirabilis M 40 mutant after 18 hrs by Etest method; format: functional; conditions: M 40, 18 h

SMILES	MIC [µg/mL]
O=C1CN(/N=C/c2ccc([N+](=O)[O-])o2)C(=O)N1 [NITROFURANTOIN]	64 (≈ 269 µM)
CCn1cc(C(=O)O)c(=O)c2cc(F)c(N3CCNCC3)cc21 [NORFLOXACIN]	0.03 (≈ 0.0939 µM)

system: Proteus mirabilis; test: Antibacterial activity against Proteus mirabilis NP14 after 18 hrs by Etest method; format: functional; conditions: NP14, 18 h

SMILES	MIC [µg/mL]
O=C1CN(/N=C/c2ccc([N+](=O)[O-])o2)C(=O)N1 [NITROFURANTOIN]	32 (≈ 134 µM)
CCn1cc(C(=O)O)c(=O)c2cc(F)c(N3CCNCC3)cc21 [NORFLOXACIN]	0.25 (≈ 0.783 µM)

system: Escherichia coli; test: Antibacterial activity against Escherichia coli 10418 after 18 hrs by Etest method; format: functional; conditions: Escherichia coli, 10418, 18 h

SMILES	MIC [µg/mL]
O=C1CN(/N=C/c2ccc([N+](=O)[O-])o2)C(=O)N1 [NITROFURANTOIN]	2 (≈ 8.4 µM)
CCn1cc(C(=O)O)c(=O)c2cc(F)c(N3CCNCC3)cc21 [NORFLOXACIN]	0.02 (≈ 0.0626 µM)

system: Proteus mirabilis; test: Antibacterial activity against Proteus mirabilis NP55 after 18 hrs by Etest method; format: functional; conditions: NP55, 18 h

SMILES	MIC [µg/mL]
O=C1CN(/N=C/c2ccc([N+](=O)[O-])o2)C(=O)N1 [NITROFURANTOIN]	64 (≈ 269 µM)
CCn1cc(C(=O)O)c(=O)c2cc(F)c(N3CCNCC3)cc21 [NORFLOXACIN]	0.05 (≈ 0.157 µM)

system: Proteus mirabilis; test: Antibacterial activity against Proteus mirabilis M 44 mutant after 18 hrs by Etest method; format: functional; conditions: M 44, 18 h

SMILES	MIC [µg/mL]
O=C1CN(/N=C/c2ccc([N+](=O)[O-])o2)C(=O)N1 [NITROFURANTOIN]	32 (≈ 134 µM)
CCn1cc(C(=O)O)c(=O)c2cc(F)c(N3CCNCC3)cc21 [NORFLOXACIN]	0.05 (≈ 0.157 µM)

system: Proteus mirabilis; test: Antibacterial activity against Proteus mirabilis M 23 mutant after 18 hrs by Etest method; format: functional; conditions: M 23, 18 h

SMILES	MIC [µg/mL]
O=C1CN(/N=C/c2ccc([N+](=O)[O-])o2)C(=O)N1 [NITROFURANTOIN]	32 (≈ 134 µM)
CCn1cc(C(=O)O)c(=O)c2cc(F)c(N3CCNCC3)cc21 [NORFLOXACIN]	0.19 (≈ 0.595 µM)

system: Proteus mirabilis; test: Antibacterial activity against Proteus mirabilis M 31 mutant after 18 hrs by Etest method; format: functional; conditions: M 31, 18 h

SMILES	MIC [µg/mL]
O=C1CN(/N=C/c2ccc([N+](=O)[O-])o2)C(=O)N1 [NITROFURANTOIN]	24 (≈ 101 µM)
CCn1cc(C(=O)O)c(=O)c2cc(F)c(N3CCNCC3)cc21 [NORFLOXACIN]	0.02 (≈ 0.0626 µM)

system: Proteus mirabilis; test: Antibacterial activity against Proteus mirabilis M 48 mutant after 18 hrs by Etest method; format: functional; conditions: M 48, 18 h

SMILES	MIC [µg/mL]
O=C1CN(/N=C/c2ccc([N+](=O)[O-])o2)C(=O)N1 [NITROFURANTOIN]	24 (≈ 101 µM)
CCn1cc(C(=O)O)c(=O)c2cc(F)c(N3CCNCC3)cc21 [NORFLOXACIN]	0.05 (≈ 0.157 µM)
